Assay results taken from patent US20250170107A1, “IMIDAZOPYRIDINE INHIBITORS OF TYROSINE KINASE” (BridGene Biosciences. Inc., priority 2022, published 2025).

Key:
FLT3 = biological target: T1, FLT3 (Homo sapiens, UniProt P36888); experiment: Caliper mobility shift kinase inhibition assay, recombinant FLT3; format: biochemical; details: recombinant FLT-3 0.1 nM, ATP 95 μM, incubation 3 hr, room temperature
T1 construct: purchased ThermoFisher PV3182
T1 sequence (P36888 27-993): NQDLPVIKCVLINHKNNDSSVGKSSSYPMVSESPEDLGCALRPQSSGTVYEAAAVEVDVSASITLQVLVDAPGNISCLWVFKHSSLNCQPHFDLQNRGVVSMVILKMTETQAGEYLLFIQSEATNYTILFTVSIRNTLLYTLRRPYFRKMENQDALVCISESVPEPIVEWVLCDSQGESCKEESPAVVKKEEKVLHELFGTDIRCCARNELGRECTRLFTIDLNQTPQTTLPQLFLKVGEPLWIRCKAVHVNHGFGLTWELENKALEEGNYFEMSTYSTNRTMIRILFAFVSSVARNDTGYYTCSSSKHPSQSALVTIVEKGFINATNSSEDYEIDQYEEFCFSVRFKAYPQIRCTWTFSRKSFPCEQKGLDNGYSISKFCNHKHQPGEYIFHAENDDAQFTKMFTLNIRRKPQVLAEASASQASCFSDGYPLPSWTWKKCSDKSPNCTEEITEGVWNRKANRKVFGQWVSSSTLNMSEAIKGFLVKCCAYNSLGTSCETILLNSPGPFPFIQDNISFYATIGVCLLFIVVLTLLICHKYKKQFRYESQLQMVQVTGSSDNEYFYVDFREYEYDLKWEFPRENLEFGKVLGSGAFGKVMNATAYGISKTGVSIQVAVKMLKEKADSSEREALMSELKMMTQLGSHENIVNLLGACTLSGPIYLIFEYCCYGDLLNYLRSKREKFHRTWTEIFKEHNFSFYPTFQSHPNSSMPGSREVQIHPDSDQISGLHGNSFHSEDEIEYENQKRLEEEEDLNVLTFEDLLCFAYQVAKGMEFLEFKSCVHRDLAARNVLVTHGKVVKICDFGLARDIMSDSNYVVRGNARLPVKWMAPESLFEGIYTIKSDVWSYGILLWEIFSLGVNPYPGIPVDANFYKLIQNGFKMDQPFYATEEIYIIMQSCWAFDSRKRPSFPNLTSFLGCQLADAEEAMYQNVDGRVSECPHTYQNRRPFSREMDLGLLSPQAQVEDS
Protocol: Compounds' inhibition of recombinant kinases (FLT3, KIT) was measured using Caliper mobility shift assay, which is based on the difference in capillary electrophoresis mobility of a fluorescent-tagged peptide as a result of a phosphorylation by the kinase under study. Reactions were started by the addition of various concentrations of a compound (originally in DMSO solution) to a kinase solution in assay buffer followed by addition of a mixture of ATP and a fluorescent-tagged peptide substrate in assay buffer. Concentrations of the enzyme, ATP and thepeptide were pre-optimized so that 15% substrate conversion to ensure initial velocity measurements. After incubation for 3 hours at room temperature, the kinase reaction was quenched by the addition of a concentrated EDTA solution before analysis on a LabChip EZ Reader II to yield percentage inhibition by comparing to the DMSO control. Table 2 below summarizes the assay conditions for the characterization of the kinase inhibition properties of the disclosed compounds.

KIT = biological target: T2, KIT (Homo sapiens, UniProt P10721); experiment: Caliper mobility shift kinase inhibition assay, recombinant KIT; format: biochemical; details: recombinant KIT 0.9 nM, ATP 400 μM, incubation 17 hr (Table 2)
T2 construct: purchased BPS 40250

MV4-11 = experiment: Cell viability assay (CellTiter-Glo), FLT3 cell-based assay; details: Homo sapiens, MV4-11 cells, 72 hr at 37° C., 0.1% DMSO
Protocol: Cell viability assay was performed based on the following brief procedures. Cells were plated at the density of 5K/well with volume of 180 μL in 96-well white plate and clear bottom plates. 20 μL of veh. or compound was added at proper concentration to the well. The final volume is 200 μL, with final conc. of DMSO=0.1%, 11 points, triplicates. The cells were then treated at 37° C. in the TC incubator for 72 hr. Equal volume (200 μL) of CellTiter-Glo reagent (Promega) was added to the well and protect from light at room temperature for 15 min. The chemiluminescence was measured with EnSight (Perkin Elmer). GraphPad Prism non-linear regression, Log[inhibitor] response with four parameters were used to calculate GI50.

T2 sequence (P10721 26-976): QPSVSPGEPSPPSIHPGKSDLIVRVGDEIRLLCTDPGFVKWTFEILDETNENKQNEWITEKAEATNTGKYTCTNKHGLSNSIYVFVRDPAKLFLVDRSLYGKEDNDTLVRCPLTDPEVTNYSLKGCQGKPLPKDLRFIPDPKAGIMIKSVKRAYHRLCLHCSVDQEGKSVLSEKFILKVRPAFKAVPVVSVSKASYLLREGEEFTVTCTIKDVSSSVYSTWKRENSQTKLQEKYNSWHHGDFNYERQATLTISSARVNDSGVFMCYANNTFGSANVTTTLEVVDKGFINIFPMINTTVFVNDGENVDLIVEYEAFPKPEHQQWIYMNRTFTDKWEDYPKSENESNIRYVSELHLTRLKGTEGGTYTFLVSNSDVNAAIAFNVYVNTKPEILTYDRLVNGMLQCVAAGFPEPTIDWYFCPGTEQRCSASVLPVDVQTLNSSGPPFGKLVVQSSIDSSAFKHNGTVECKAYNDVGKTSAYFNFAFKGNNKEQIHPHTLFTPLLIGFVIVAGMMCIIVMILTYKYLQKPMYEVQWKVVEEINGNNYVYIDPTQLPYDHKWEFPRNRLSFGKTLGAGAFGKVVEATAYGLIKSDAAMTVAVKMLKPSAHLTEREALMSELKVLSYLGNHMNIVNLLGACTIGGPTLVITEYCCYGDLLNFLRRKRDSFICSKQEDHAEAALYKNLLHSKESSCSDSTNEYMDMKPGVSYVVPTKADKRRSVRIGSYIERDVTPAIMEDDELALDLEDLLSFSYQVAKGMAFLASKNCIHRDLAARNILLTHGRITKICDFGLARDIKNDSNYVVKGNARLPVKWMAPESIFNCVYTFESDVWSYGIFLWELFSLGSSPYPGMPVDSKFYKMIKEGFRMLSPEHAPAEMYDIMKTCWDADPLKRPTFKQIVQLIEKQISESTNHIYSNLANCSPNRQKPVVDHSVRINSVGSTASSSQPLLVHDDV

`C=CC(=O)N1CCOC[C@H]1C(=O)NCCn1cnc2cnc(Nc3ncc(-c4ccncc4)s3)cc21` [Example 1, (3S)-4-prop-2-enoyl-N-[2-[6-[[5-(4-pyridyl)thiazol-2-yl]amino]imidazo[4,5-c]pyridin-1-yl]ethyl]morpholine-3-carboxamide] was tested, and the IC50 (FLT3) was under 1 nM, the IC50 (KIT) was 1 to 10 nM and the GI50 (MV4-11) was 10 to 100 nM.
`C/C=C\C(=O)N1CCC[C@H]1C(=O)NCCn1cnc2cnc(Nc3ncc(-c4ccc(F)cc4)s3)cc21` [Example 2, (2S)-1-[(Z)-but-2-enoyl]-N-[2-[6-[[5-(4-fluorophenyl)thiazol-2-yl]amino]imidazo[4,5-c]pyridin-1-yl]ethyl]pyrrolidine-2-carboxamide] gave an IC50 (FLT3) of 1 to 10 nM, an IC50 (KIT) of 1 to 10 nM and a GI50 (MV4-11) of under 10 nM.
Work on `CN(C)C/C=C/C(=O)N1CCC[C@H]1C(=O)NCCn1cnc2cnc(Nc3ncc(-c4ccc(F)cc4)s3)cc21` [Example 3, (2S)-1-[(E)-4-(dimethylamino)but-2-enoyl]-N-[2-[6-[[5-(4-fluorophenyl)thiazol-2-yl]amino]imidazo[4,5-c]pyridin-1-yl]ethyl]pyrrolidine-2-carboxamide] yielded an IC50 (FLT3) of under 1 nM, an IC50 (KIT) of 1 to 10 nM and a GI50 (MV4-11) of 10 to 100 nM.
`C=C(F)C(=O)N1CCC[C@H]1C(=O)NCCn1cnc2cnc(Nc3ncc(-c4ccc(F)cc4)s3)cc21` [Example 4] was tested, and the IC50 (FLT3) was 1 to 10 nM, the IC50 (KIT) was 1 to 10 nM and the GI50 (MV4-11) was under 10 nM.
For `C=CC(=O)N1CCC[C@H]1C(=O)NCCn1cnc2cnc(Nc3ncc(-c4ccc(F)cc4)s3)cc21` [Example 5], the IC50 (FLT3) was under 1 nM, the IC50 (KIT) was under 1 nM and the GI50 (MV4-11) was under 10 nM.
`C=CC(=O)N1CCOC[C@H]1C(=O)NCCn1cnc2cnc(Nc3ncc(-c4ccc(F)cc4)s3)cc21` [Example 6, (3S)-N-[2-[6-[[5-(4-fluorophenyl)thiazol-2-yl]amino]imidazo[4,5-c]pyridin-1-yl]ethyl]-4-prop-2-enoyl-morpholine-3-carboxamide] was tested, and the GI50 (MV4-11) was under 10 nM.
For `C=CC(=O)N1CC[C@H]1C(=O)NCCn1cnc2cnc(Nc3ncc(-c4ncccc4F)s3)cc21` [Example 7, (2S)-N-[2-[6-[[5-(3-fluoro-2-pyridyl)thiazol-2-yl]amino]imidazo [4,5-c]pyridin-1-yl]ethyl]-1-prop-2-enoyl-azetidine-2-carboxamide], the IC50 (FLT3) was under 1 nM and the IC50 (KIT) was under 1 nM.
With `C=CC(=O)N1CCC[C@H]1C(=O)NCCn1cnc2cnc(Nc3ncc(-c4ccncc4F)s3)cc21` [Example 8, (2S)-N-[2-[6-[[5-(3-fluoro-4-pyridyl)thiazol-2-yl]amino]imidazo[4,5-c]pyridin-1-yl]ethyl]-1-prop-2-enoyl-pyrrolidine-2-carboxamide] the IC50 (FLT3) was under 1 nM, the IC50 (KIT) was under 1 nM and the GI50 (MV4-11) was under 10 nM.
With `C=CC(=O)N1CCC[C@H]1C(=O)NCCn1cnc2cnc(Nc3ncc(-c4ncccc4F)s3)cc21` [Example 9, (2S)-N-[2-[6-[[5-(3-fluoro-2-pyridyl)thiazol-2-yl]amino]imidazo[4,5-c]pyridin-1-yl]ethyl]-1-prop-2-enoyl-pyrrolidine-2-carboxamide] the IC50 (FLT3) was under 1 nM, the IC50 (KIT) was under 1 nM and the GI50 (MV4-11) was under 10 nM.
Work on `C=C(F)C(=O)N1CCC[C@H]1C(=O)NCCn1cnc2cnc(Nc3ncc(-c4ncccc4F)s3)cc21` [Example 10] yielded an IC50 (FLT3) of 1 to 10 nM, an IC50 (KIT) of 10 to 100 nM and a GI50 (MV4-11) of under 10 nM.
With `C/C=C\C(=O)N1CCC[C@H]1C(=O)NCCn1cnc2cnc(Nc3ncc(-c4ncccc4F)s3)cc21` [Example 11, (2S)-1-[(Z)-but-2-enoyl]-N-[2-[6-[[5-(3-fluoro-2-pyridyl)thiazol-2-yl]amino]imidazo[4,5-c]pyridin-1-yl]ethyl]pyrrolidine-2-carboxamide] the IC50 (FLT3) was 1 to 10 nM, the IC50 (KIT) was 100 to 1000 nM and the GI50 (MV4-11) was 10 to 100 nM.
Work on `C=CC(=O)N1CCOC[C@H]1C(=O)NCCn1cnc2cnc(Nc3ncc(-c4ncccc4F)s3)cc21` [Example 12, (3S)-N-[2-[6-[[5-(3-fluoro-2-pyridyl)thiazol-2-yl]amino]imidazo[4,5-c]pyridin-1-yl]ethyl]-4-prop-2-enoyl-morpholine-3-carboxamide] yielded an IC50 (FLT3) of under 1 nM, an IC50 (KIT) of 10 to 100 nM and a GI50 (MV4-11) of under 10 nM.
`C=CC(=O)N1C[C@H](O)C[C@H]1C(=O)NCCn1cnc2cnc(Nc3ncc(-c4ccc(F)cc4)s3)cc21` [Example 13, (2S,4R)-N-[2-[6-[[5-(4-fluorophenyl)thiazol-2-yl]amino]imidazo[4,5-c]pyridin-1-yl]ethyl]-4-hydroxy-1-prop-2-enoylpyrrolidine-2-carboxamide] showed an IC50 (FLT3) of under 1 nM, an IC50 (KIT) of under 1 nM and a GI50 (MV4-11) of 10 to 100 nM.
`C=CC(=O)N1C[C@@H](O)C[C@H]1C(=O)NCCn1cnc2cnc(Nc3ncc(-c4ccc(F)cc4)s3)cc21` [Example 14, (2S,4S)-N-[2-[6-[[5-(4-fluorophenyl)thiazol-2-yl]amino]imidazo[4,5-c]pyridin-1-yl]ethyl]-4-hydroxy-1-prop-2-enoylpyrrolidine-2-carboxamide] showed an IC50 (FLT3) of under 1 nM, an IC50 (KIT) of under 1 nM and a GI50 (MV4-11) of under 10 nM.
In the case of `C=CC(=O)N1CC[C@H](O)[C@H]1C(=O)NCCn1cnc2cnc(Nc3ncc(-c4ccc(F)cc4)s3)cc21` [Example 15, (2S,3S)-N-[2-[6-[[5-(4-fluorophenyl)thiazol-2-yl]amino]imidazo[4,5-c]72yridine-1-yl]ethyl]-3-hydroxy-1-prop-2-enoylpyrrolidine-2-carboxamide], the IC50 (FLT3) is reported as under 1 nM, the IC50 (KIT) is reported as under 1 nM and the GI50 (MV4-11) is reported as under 10 nM.
Work on `C=C(F)C(=O)N1CCOC[C@H]1C(=O)NCCn1cnc2cnc(Nc3ncc(-c4ncccc4F)s3)cc21` [Example 16, (3S)-4-(2-fluoroprop-2-enoyl)-N-[2-[6-[[5-(3-fluoro-2-pyridyl)thiazol-2-yl]amino]imidazo[4,5-c]pyridin-1-yl]ethyl]morpholine-3-carboxamide] yielded an IC50 (FLT3) of 1 to 10 nM and an IC50 (KIT) of 1 to 10 nM.
`CN(C)C/C=C/C(=O)N1CCOC[C@H]1C(=O)NCCn1cnc2cnc(Nc3ncc(-c4ncccc4F)s3)cc21` [Example 17, (3S)-4-[(E)-4-(dimethylamino)but-2-enoyl]-N-[2-[6-[[5-(3-fluoro-2-pyridyl)thiazol-2-yl]amino]imidazo[4,5-c]pyridin-1-yl]ethyl]morpholine-3-carboxamide] gave an IC50 (FLT3) of under 1 nM and an IC50 (KIT) of under 1 nM.
`C=CC(=O)N1C[C@H](O)C[C@H]1C(=O)NCCn1cnc2cnc(Nc3ncc(-c4ncccc4F)s3)cc21` [Example 18, (2S,4R)-N-[2-[6-[[5-(3-fluoro-2-pyridyl)thiazol-2-yl]amino]imidazo[4,5-c]pyridin-1-yl]ethyl]-4-hydroxy-1-prop-2-enoyl-pyrrolidine-2-carboxamide] was tested, and the IC50 (FLT3) was under 1 nM and the IC50 (KIT) was 1 to 10 nM.
In the case of `C=C(F)C(=O)N1C[C@H](O)C[C@H]1C(=O)NCCn1cnc2cnc(Nc3ncc(-c4ncccc4F)s3)cc21` [Example 19, (2S,4R)-1-(2-fluoroprop-2-enoyl)-N-[2-[6-[[5-(3-fluoro-2-pyridyl)thiazol-2-yl]amino]imidazo[4,5-c]pyridin-1-yl]ethyl]-4-hydroxy-pyrrolidine-2-carboxamide], the IC50 (FLT3) is reported as 1 to 10 nM and the IC50 (KIT) is reported as 10 to 100 nM.
Molecule `CN(C)C/C=C/C(=O)N1C[C@H](O)C[C@H]1C(=O)NCCn1cnc2cnc(Nc3ncc(-c4ncccc4F)s3)cc21` [Example 20, (2S,4R)-1-[(E)-4-(dimethylamino)but-2-enoyl]-N-[2-[6-[[5-(3-fluoro-2-pyridyl)thiazol-2-yl]amino]imidazo[4,5-c]pyridin-1-yl]ethyl]-4-hydroxy-pyrrolidine-2-carboxamide] has an IC50 (FLT3) of under 1 nM and an IC50 (KIT) of under 1 nM.
